Series [1] is described as follows: Cytotoxicity in HeLa cells (ATPlite). In kind it is cell-based. To be noted: human, in parallel to RSV assay, read-out: CC50 (Toxicity HeLa Cells). The protocol:
(§1) Black 96-well clear-bottom microtiter plates (Corning, Amsterdam, The Netherlands) were filled in duplicate using a customized robot system with serial 4-fold dilutions of test compound in a final volume of 50 μl culture medium [RPMI medium without phenol red, 10% FBS, 0.04% gentamycin (50 mg/mL) and 0.5% DMSO]. Then, 100 μl of a HeLa cell suspension (5×10^4 cells/mL) in culture medium was added to each well followed by the addition of 50 μl rgRSV224 (MOI=0.02) virus in culture medium using a multidrop dispenser (Thermo Scientific, Erembodegem, Belgium). rgRSV224 virus is an engineered virus that includes an additional GFP gene (HALLAK, L. K., et. al., “Glycosaminoglycan sulfation requirements for respiratory syncytial virus infection.” J. Virol., 2000, pp 10508-10513, Vol. […]). Medium, virus- and mock-infected controls were included in each test. Cells were incubated at 37° C. in a 5% CO2 atmosphere. Three days post-virus exposure, viral replication was quantified by measuring GFP expression in the cells by a MSM laser microscope (Tibotec, Beerse, Belgium). […] In parallel, test compounds were incubated for three days in a set of white 96-well microtitier plates (Corning) and the cytotoxicity of compounds in HeLa cells was determined by measuring the ATP content of the cells using the ATPlite kit (PerkinElmer, Zaventem, Belgium) according to the manufacturer's instructions. […]

Series [2] deals with HCV 1b bicistronic subgenomic luciferase reporter replicon clone ET. Description: Antiviral Activity Against HCV (replicon cells, luciferase read-out). In kind it is cell-based. To be noted: Hepatitis C virus, 72 h; HCV 1b replicon clone ET, 3-day incubation, firefly luciferase read-out. Here is the method:
The anti-HCV activity of compounds was tested in cell culture with replicon cells generated using reagents from the Bartenschlager laboratory (the HCV 1b bicistronic subgenomic luciferase reporter replicon clone ET). The protocol included a 3-day incubation of 2500 replicon cells in a 384-well format in a nine-point 1:4 dilution series of the compound. Dose response curves were generated based on the firefly luciferase read-out.
A general note: A replicon is a self-replicating genome or part of one, used to study replication in cells.

The subject of a further series is rgRSV224 virus. Nature of the series: Antiviral Activity Against RSV (GFP expression in HeLa cells). The class given is cell-based. As to conditions: human respiratory syncytial virus, 72 h, read-out: EC50 (RSV Antiviral Activity). The protocol:
as §1

Series [3] can be described thus: Toxicity Huh7-ATP (cytotoxicity alongside the HCV replicon assay). As to conditions: human, Huh7 cells.

The results in this text go back to patent US9562035B2, “Benzamide derivative useful as FASN inhibitors for the treatment of cancer” (Janssen Pharmaceutica NV, priority 2013, dated 2017).

In general, CC50 refers to the concentration at which the toxic effect on the cells reaches its halfway point. A word on the EC50: it is the concentration at which the effect is half-maximal. As to `Cc1ccc(C(=O)N2CCC(c3ccc(-c4cnn(C)c4)cc3)CC2)cc1NC(=O)c1ccc(NC(C)C)nc1` [Compound #32, 6-(isopropylamino)-N-(2-methyl-5-(4-(4-(1-methyl-1H-pyrazol-4-yl)phenyl)piperidine-1-carbonyl)phenyl)nicotinamide], the 50% cytotoxic concentration (CC50) at 3 days in series [1] is over 25000 nM. Further, the EC50 came out at 14.6 nM in series [2] and 17.7 nM in the series on rgRSV224 virus. Also, the cytotoxic concentration (CC50) in series [3] is over 25000 nM.
